This note sets out measurements from PubChem BioAssay AID504440 (Sanford-Burnham Center for Chemical Genomics, 2011).

Several values for one entry are separate records, joined by “and”; a condition that tells them apart may be missing. Equal entries are not always repeated. Activity calls are given as the source filed them.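 Rule for the calls: active = mean IC50 below 5 µM in the confirmatory dose response test; inactive = the rest.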

This assay deals with AML12 mouse hepatocytes, BODIPY lipid droplet imaging. The experiment in a line: blockers of lipid droplet accumulation in AML12 cells – imaging, AML12 mouse hepatocytes, set 2, SAR follow-up (AID 504440).

In the case of `COc1ccc(CCNC(=O)c2cc3ccccc3n2C)cc1OC`, the IC50 was > 10 µM (inactive).

As for `CCn1c(C(=O)NCCc2ccc(OC)c(OC)c2)cc2ccsc21`, the IC50 was 2.15 µM.

For `CCOc1ccc(CCNC(=O)Cn2nc(C)c3c(C)n(-c4ccccc4)nc3c2=O)cc1OCC`, the 50% inhibitory concentration (IC50) was 0.187 µM.

Regarding `CCOc1cc(CCNC(=O)COc2cc(=O)n(C)c3ccccc23)ccc1OC`, the IC50 is 8.93 µM (inactive).

Regarding `CCOc1cc(CCNC(=O)c2cc3sccc3n2CC)ccc1OC`, the IC50 is 0.063 µM.

Take `CCOc1ccc(CCNC(=O)CCC(=O)N2CCOc3ccc(C)cc32)cc1OCC`: the IC50 is 0.235 µM.

As for `CCOc1ccc(CCNC(=O)CCC(=O)N2CCOc3ccccc32)cc1OCC`, the IC50 is 0.199 µM.

With `CCOc1cc(CCNC(=O)c2cc3ccccc3n2C)ccc1OC`, the IC50 is 1.04 µM.

For `O=C(NCCc1ccc2c(c1)OCO2)c1cc2sccc2[nH]1`, the IC50 was > 10 µM (inactive).

As for `CCOc1ccc(CCNC(=O)Cn2cccc2C(=O)c2ccccc2C)cc1OCC`, the IC50 was 0.349 µM.

Consider `CCOc1ccc(CCNC(=O)CCc2nnc3ccc(N4CCCCC4)nn23)cc1OCC`, for which the IC50 was 0.199 µM.

For `CCOc1ccc(CCNC(=O)c2cc3sccc3n2C)cc1OCC`, the IC50 is 0.124 µM.

For `COc1ccc(CCNC(=O)COC(=O)c2cc(OC)c(OC)cc2OC)cc1OC`, the IC50 was > 10 µM (inactive).

On to `CCOc1cc(CCNC(=O)c2cc3ccsc3n2C)ccc1OC`, for which the concentration for half-maximal inhibition (IC50) is 0.641 µM.

Regarding `CCOc1ccc(CCNC(=O)CSc2cc(=O)n(CC)c3ccccc23)cc1OCC`, the half-inhibitory concentration (IC50) was 0.987 µM.

With `CCn1c(C(=O)NCc2cc(OC)c(OC)c(OC)c2)cc2sccc21`, the 50% inhibitory concentration (IC50) was 4.82 µM.

As to `CCOc1ccc(CCNC(=O)c2ccc(N3CCOCC3)s2)cc1OCC`, the IC50 was 0.384 µM.

`CCOc1ccc(CCNC(=O)CN2C(=O)c3cccnc3Oc3ccc(C)cc32)cc1OCC`: the IC50 was 0.13 µM.

In the case of `CCOc1ccc(CCNC(=O)c2cc3sc(Cl)cc3n2C)cc1OCC`, the IC50 was 0.0697 µM.

For the molecule `COc1ccc(NC(=O)c2cc3ccsc3n2C)cc1OC`, the IC50 was > 10 µM (inactive).

Regarding `CCOc1ccc(CCNC(=O)COC(=O)c2cc(OC)c(OC)c(OC)c2)cc1OCC`, the IC50 is 0.104 µM.

As to `COc1ccc(CNC(=O)CSc2cc(=O)n(C)c3ccccc23)cc1OC`, the IC50 was > 10 µM (inactive).

For the molecule `CCn1c(C(=O)NCCc2ccc(OC)c(OC)c2)cc2sc(Cl)cc21`, the IC50 is 1.35 µM.

For the molecule `CCOc1ccc(CCNC(=O)C2CC=CCC2C(=O)OC(C)C)cc1OCC` (stereo not drawn), the half-inhibitory concentration (IC50) is 0.26 µM.

Take `O=C(NCCc1ccc2c(c1)OCO2)c1ccc(N2CCOCC2)s1`: the IC50 is > 10 µM (inactive).

In the case of `CCOc1ccc(CCNC(=O)c2cc3ccsc3n2C)cc1OC`, the IC50 is 1.09 µM.

As to `CCOc1cc(CCNC(=O)c2cc(-c3ccccc3)c(N3CCOCC3)s2)ccc1OC`, the IC50 was 0.0428 µM.

Take `O=C(NCCc1ccc2c(c1)OCO2)c1cc(-c2ccccc2)c(N2CCOCC2)s1`: the 50% inhibitory concentration (IC50) was 3.26 µM.

As to `CCn1c(C(=O)Nc2ccc3c(c2)OCO3)cc2sccc21`, the IC50 is > 10 µM (inactive).

`CCOc1cc(CCNC(=O)c2cc3sccc3[nH]2)ccc1OC`: the IC50 is 2.19 µM.

`CCn1c(C(=O)Nc2ccc(OC)c(OC)c2)cc2ccsc21`: the IC50 was > 10 µM (inactive).

For the molecule `CCn1c(C(=O)Nc2ccc(OC)c(OC)c2)cc2sccc21`, the IC50 was > 10 µM (inactive).

On to `Cn1c(=O)cc(SCC(=O)Nc2ccc3c(c2)OCO3)c2ccccc21`, for which the IC50 is > 10 µM (inactive).

In the case of `COc1ccc(CCNC(=O)c2cc3sc(Cl)cc3n2C)cc1OC`, the IC50 is 7.02 µM (inactive).

As to `CCOc1ccc(CCNC(=O)c2cc3ccccc3n2C)cc1OC`, the IC50 is 0.804 µM.

As to `CCOc1ccc(CCNC(=O)COC(=O)c2cc(OC)cc(OC)c2)cc1OCC`, the 50% inhibitory concentration (IC50) was 1.09 µM.

`CCOc1ccc(CCNC(=O)c2cc(-c3ccccc3)c(N3CCOCC3)s2)cc1OC`: the half-inhibitory concentration (IC50) is 0.0216 µM.

Regarding `COc1ccc(CCNC(=O)CSc2cc(=O)n(C)c3ccccc23)cc1OC`, the IC50 was > 10 µM (inactive).

Consider `CCOc1ccc(CCNC(=O)CSc2cc(=O)n(C)c3ccccc23)cc1OC`, for which the IC50 was 3.03 µM.

Take `CCOc1ccc(CCNC(=O)Cn2ncn3nc(-c4ccc(OC)cc4)cc3c2=O)cc1OCC`: the IC50 was 0.129 µM.

Turning to `CCn1c(C(=O)NCc2ccc(OC)c(OC)c2)cc2ccsc21`, the IC50 was > 10 µM (inactive).

In the case of `CCOc1ccc(CCNC(=O)COC(=O)c2ccc(OC)c(OC)c2OC)cc1OCC`, the IC50 was 0.0375 µM.

As for `CCOc1ccc(CCNC(=O)CN2CCN(Cc3ccccc3C)C2=O)cc1OCC`, the IC50 is 0.344 µM.

In the case of `COc1cc(CNC(=O)c2cc3ccsc3n2C)cc(OC)c1OC`, the IC50 is > 10 µM (inactive).

For `CCOc1ccc(CCNC(=O)c2cc3sccc3[nH]2)cc1OCC`, the IC50 is 0.639 µM.

With `COc1ccc(CCNC(=O)c2cc3sccc3n2C)cc1OC`, the IC50 was 8.37 µM (inactive).

As for `Cn1c(=O)cc(SCC(=O)NCc2ccc3c(c2)OCO3)c2ccccc21`, the IC50 was > 10 µM (inactive).

Take `CCOc1ccc(CCNC(=O)CSc2cc(=O)n(C)c3ccccc23)cc1OCC`: the IC50 is 0.564 µM and 0.526 µM.

Regarding `Cn1c(C(=O)Nc2ccc3c(c2)OCO3)cc2ccsc21`, the IC50 is > 10 µM (inactive).

With `CCOc1ccc(CCNC(=O)c2cc3ccsc3n2CC)cc1OCC`, the IC50 is 0.0779 µM.

For the molecule `CCOc1ccc(CCNC(=O)c2cc3sccc3n2CC)cc1OCC`, the IC50 is 0.0399 µM.

Take `CCOc1ccc(CCNC(=O)CCC(=O)N2CCSc3ccccc32)cc1OCC`: the IC50 is 0.0693 µM.

As for `CCOc1ccc(CCNC(=O)c2cc3ccsc3n2C)cc1OCC`, the IC50 is 0.138 µM.

As for `CCOc1ccc(CCNC(=O)CCc2nc(-c3ccc(OC)cc3)no2)cc1OCC`, the IC50 is 0.206 µM.

Consider `Cn1c(=O)cc(SCC(=O)NCCc2ccc3c(c2)OCO3)c2ccccc21`, for which the IC50 is > 10 µM (inactive).

`Cn1c(C(=O)NCCc2ccc3c(c2)OCO3)cc2ccccc21`: the IC50 is > 10 µM (inactive).

Consider `CCOc1ccc(CCNC(=O)c2cc3ccsc3n2CC)cc1OC`, for which the IC50 was 0.501 µM.

With `CCn1c(C(=O)Nc2ccc3c(c2)OCO3)cc2ccsc21`, the IC50 is > 10 µM (inactive).

For `CCOc1cc(CCNC(=O)c2ccc(N3CCOCC3)s2)ccc1OC`, the IC50 is 2.34 µM.

For the molecule `CCOc1cc(CCNC(=O)CSc2cc(=O)n(C)c3ccccc23)ccc1OC`, the IC50 is 6.38 µM (inactive).

For the molecule `COc1ccc(CNC(=O)c2cc3ccsc3n2C)cc1OC`, the IC50 was > 10 µM (inactive).

`CCOc1ccc(CCNC(=O)CCOc2cc(C)ccc2C)cc1OCC`: the IC50 is 0.0678 µM.

`CCn1c(C(=O)NCc2ccc3c(c2)OCO3)cc2sccc21`: the IC50 is > 10 µM (inactive).

Consider `COc1ccc(CNC(=O)c2ccc(N3CCOCC3)s2)cc1OC`, for which the IC50 was > 10 µM (inactive).

Consider `CCOc1ccc(CCNC(=O)c2cc3sccc3n2CC)cc1OC`, for which the IC50 is 0.261 µM.

`CCOc1ccc(CCNC(=O)Cn2cccc2C(=O)c2ccccc2)cc1OCC`: the IC50 was 0.418 µM.

For the molecule `COc1ccc(CCNC(=O)c2cc(-c3ccccc3)c(N3CCOCC3)s2)cc1OC`, the 50% inhibitory concentration (IC50) was 0.271 µM and 0.186 µM.

In the case of `COc1ccc(CCNC(=O)Cn2cccc2C(=O)c2ccccc2C)cc1OC`, the IC50 was > 10 µM (inactive).

`CCOc1ccc(CCNC(=O)c2nnc(Cc3ccc(F)cc3)o2)cc1OCC`: the IC50 was 0.348 µM.

For `CCOc1ccc(CCNC(=O)CSc2cc(=O)n(C)c3cc(Cl)ccc23)cc1OCC`, the IC50 is 0.504 µM.

For `COc1cc(CNC(=O)CSc2cc(=O)n(C)c3ccccc23)cc(OC)c1OC`, the IC50 was > 10 µM (inactive).

Consider `CCOc1ccc(CCNC(=O)CCc2nnc3ccc(N4CCCC4)nn23)cc1OCC`, for which the IC50 was 0.771 µM.

Regarding `COc1ccc(CNC(=O)c2cc(-c3ccccc3)c(N3CCOCC3)s2)cc1OC`, the IC50 was 0.101 µM.

For `COc1ccc(CCNC(=O)c2cc(-c3ccccc3)c(N3CCOCC3)s2)c(OC)c1OC`, the IC50 is 0.0883 µM.

For `CCn1c(C(=O)NCc2cc(OC)c(OC)c(OC)c2)cc2ccsc21`, the IC50 is 3.02 µM.

With `CCOc1ccc(CCNC(=O)COc2cc(=O)n(C)c3ccccc23)cc1OCC`, the IC50 is 0.945 µM.

On to `CCOc1ccc(CCNC(=O)c2cc(-c3ccccc3)c(N3CCOCC3)s2)cc1OCC`, for which the IC50 is 0.0061 µM and 0.00639 µM.

With `Cn1c(C(=O)NCc2ccc3c(c2)OCO3)cc2ccsc21`, the IC50 is > 10 µM (inactive).
